One assay concerns the target human GLP-1R (Homo sapiens, UniProt P43220). Put plainly: Peptide-receptor mediated cAMP accumulation (LANCE Ultra cAMP) in CHO-K1 cells transfected with human GLP-1R. To be noted: hGLP1 pEC50 (cAMP mean (n = 3): 11 point curve starting at 1 nM, Table 3). The format is cell-based. In general terms: Cyclic AMP is a second messenger, typically raised through Gs and lowered through Gi signalling.

The target in the next assay is human GCGR (Homo sapiens, UniProt P47871). The assay is described as follows: Peptide-receptor mediated cAMP accumulation (LANCE Ultra cAMP) in CHO-K1 cells transfected with human GCGR. The format is cell-based. To be noted: Table 3.

Molecules are shown by their SMILES. pEC50: −log10 of the molar value. Where a SMILES comes first, the peptide text is derived from it. [ ]: non-standard residue; d: D form. Aib = CC(C)(N)C(=O)O

Chain of human GCGR (P47871 26-477): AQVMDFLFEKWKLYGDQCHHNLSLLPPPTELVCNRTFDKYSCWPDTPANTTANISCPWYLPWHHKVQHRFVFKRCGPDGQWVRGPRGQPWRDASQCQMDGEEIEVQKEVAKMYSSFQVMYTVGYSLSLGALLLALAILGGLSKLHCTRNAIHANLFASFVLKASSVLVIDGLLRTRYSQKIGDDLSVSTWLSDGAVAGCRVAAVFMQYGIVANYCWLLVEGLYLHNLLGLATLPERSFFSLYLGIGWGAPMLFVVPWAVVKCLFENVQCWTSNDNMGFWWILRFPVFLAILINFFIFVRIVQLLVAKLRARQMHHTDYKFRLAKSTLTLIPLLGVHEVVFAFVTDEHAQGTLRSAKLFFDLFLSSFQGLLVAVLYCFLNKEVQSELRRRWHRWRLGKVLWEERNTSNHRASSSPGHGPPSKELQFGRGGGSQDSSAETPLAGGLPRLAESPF
Chain of human GLP-1R (P43220 24-463): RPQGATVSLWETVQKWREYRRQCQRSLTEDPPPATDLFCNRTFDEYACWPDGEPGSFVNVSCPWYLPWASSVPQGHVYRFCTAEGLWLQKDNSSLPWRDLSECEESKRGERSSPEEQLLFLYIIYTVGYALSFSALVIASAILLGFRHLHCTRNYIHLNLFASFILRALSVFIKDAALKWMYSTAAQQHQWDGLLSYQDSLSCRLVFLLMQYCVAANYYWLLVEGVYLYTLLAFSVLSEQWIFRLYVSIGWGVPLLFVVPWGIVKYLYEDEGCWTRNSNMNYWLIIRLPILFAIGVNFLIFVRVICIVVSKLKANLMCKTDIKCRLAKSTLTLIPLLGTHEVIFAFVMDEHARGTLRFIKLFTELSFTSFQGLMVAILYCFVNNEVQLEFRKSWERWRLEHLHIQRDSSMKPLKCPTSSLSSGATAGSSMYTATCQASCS

Broadly, the pEC50 is −log10 of the EC50, conventionally taken in molar units. Take `CC(C)C[C@H](NC(=O)[C@H](Cc1ccc(O)cc1)NC(=O)[C@H](CCCCN)NC(=O)[C@H](CO)NC(=O)[C@H](Cc1ccc(O)cc1)NC(=O)[C@H](CC(=O)O)NC(=O)[C@H](CO)NC(=O)[C@@H](NC(=O)[C@H](Cc1ccccc1)NC(=O)[C@@H](NC(=O)CNC(=O)[C@H](Cc1c[nH]cn1)NC(=O)[C@H](CO)NC(=O)[C@@H](N)Cc1ccc(O)cc1)[C@@H](C)O)[C@@H](C)O)C(=O)N[C@@H](CC(=O)O)C(=O)NC(C)(C)C(=O)N[C@@H](CCCCN)C(=O)N[C@@H](CCCNC(=N)N)C(=O)N[C@@H](C)C(=O)N[C@@H](CCC(N)=O)C(=O)N[C@@H](CCC(=O)O)C(=O)N[C@@H](Cc1ccccc1)C(=O)N[C@H](C(=O)NC(C)(C)C(=O)N[C@@H](Cc1c[nH]c2ccccc12)C(=O)N[C@@H](CC(C)C)C(=O)N[C@@H](CCC(=O)O)C(=O)N[C@@H](CC(=O)O)C(=O)N[C@@H](CCC(=O)O)C(=O)N1CCC[C@H]1C(=O)N[C@@H](CCC(=O)O)C(=O)N[C@@H](CO)C(=O)NCC(=O)N[C@@H](C)C(=O)N1CCC[C@H]1C(=O)N1CCC[C@H]1C(=O)N1CCC[C@H]1C(=O)N[C@@H](CO)C(=O)O)C(C)C` [Compound A31] (H-YSHGTFTSDYSKYLD[Aib]KRAQEFV[Aib]WLEDEPESGAPPPS-OH; N-terminus assumed): the negative logarithm of the EC50 (pEC50) at human GLP-1R is less than 9.00; on human GCGR, 11.70.
The corresponding values for `CC(C)C[C@H](NC(=O)[C@H](Cc1c[nH]c2ccccc12)NC(=O)[C@H](CCCCN)NC(=O)[C@H](CO)NC(=O)[C@H](Cc1c[nH]cn1)NC(=O)[C@H](CC(=O)O)NC(=O)[C@H](CO)NC(=O)[C@@H](NC(=O)[C@H](Cc1ccccc1)NC(=O)[C@@H](NC(=O)CNC(=O)[C@H](Cc1c[nH]cn1)NC(=O)[C@H](CO)NC(=O)[C@@H](N)Cc1ccc(O)cc1)[C@@H](C)O)[C@@H](C)O)C(=O)N[C@@H](CC(=O)O)C(=O)NC(C)(C)C(=O)N[C@@H](CCCCN)C(=O)N[C@@H](CCCNC(=N)N)C(=O)N[C@@H](C)C(=O)N[C@@H](CCC(N)=O)C(=O)N[C@@H](CCC(=O)O)C(=O)N[C@@H](Cc1ccccc1)C(=O)N[C@H](C(=O)NC(C)(C)C(=O)N[C@@H](Cc1c[nH]c2ccccc12)C(=O)N[C@@H](CC(C)C)C(=O)N[C@@H](CCC(=O)O)C(=O)N[C@@H](CC(=O)O)C(=O)N[C@@H](CCC(=O)O)C(=O)N1CCC[C@H]1C(=O)N[C@@H](CO)C(=O)N[C@@H](CO)C(=O)NCC(=O)N[C@@H](C)C(=O)N1CCC[C@H]1C(=O)N1CCC[C@H]1C(=O)N1CCC[C@H]1C(=O)N[C@@H](CO)C(=O)O)C(C)C` [Compound A33] (H-YSHGTFTSDHSKWLD[Aib]KRAQEFV[Aib]WLEDEPSSGAPPPS-OH; N-terminus assumed) are less than 9.00 and 10.90.
As for `CC(C)C[C@H](NC(=O)[C@H](Cc1c[nH]c2ccccc12)NC(=O)[C@H](CCCCN)NC(=O)[C@H](CO)NC(=O)[C@H](Cc1c[nH]cn1)NC(=O)[C@H](CC(=O)O)NC(=O)[C@H](CO)NC(=O)[C@@H](NC(=O)[C@H](Cc1ccccc1)NC(=O)[C@@H](NC(=O)CNC(=O)[C@H](Cc1c[nH]cn1)NC(=O)[C@@H](NC(=O)[C@@H](N)Cc1ccc(O)cc1)[C@@H](C)O)[C@@H](C)O)[C@@H](C)O)C(=O)N[C@@H](CC(=O)O)C(=O)NC(C)(C)C(=O)N[C@@H](CCCCN)C(=O)N[C@@H](CCCNC(=N)N)C(=O)N[C@@H](C)C(=O)N[C@@H](CCC(N)=O)C(=O)N[C@@H](CCC(=O)O)C(=O)N[C@@H](Cc1ccccc1)C(=O)N[C@H](C(=O)NC(C)(C)C(=O)N[C@@H](Cc1c[nH]c2ccccc12)C(=O)N[C@@H](CC(C)C)C(=O)N[C@@H](CCC(=O)O)C(=O)N[C@@H](CC(=O)O)C(=O)N[C@@H](CCC(=O)O)C(=O)N1CCC[C@H]1C(=O)N[C@@H](CO)C(=O)N[C@@H](CO)C(=O)NCC(=O)N[C@@H](C)C(=O)N1CCC[C@H]1C(=O)N1CCC[C@H]1C(=O)N1CCC[C@H]1C(=O)N[C@@H](CO)C(=O)O)C(C)C` [Compound A34] (H-YTHGTFTSDHSKWLD[Aib]KRAQEFV[Aib]WLEDEPSSGAPPPS-OH; N-terminus assumed), the negative-log EC50 (pEC50) was less than 9.00 at human GLP-1R and 10.30 on human GCGR.
The corresponding values for `CC(C)C[C@H](NC(=O)[C@H](Cc1c[nH]c2ccccc12)NC(=O)[C@H](CCCCN)NC(=O)[C@H](CO)NC(=O)[C@H](Cc1c[nH]cn1)NC(=O)[C@H](CC(=O)O)NC(=O)[C@H](CO)NC(=O)[C@@H](NC(=O)[C@H](Cc1ccccc1)NC(=O)[C@@H](NC(=O)CNC(=O)[C@H](Cc1c[nH]cn1)NC(=O)[C@H](CO)NC(=O)[C@@H](N)Cc1ccc(O)cc1)[C@@H](C)O)[C@@H](C)O)C(=O)N[C@@H](CC(=O)O)C(=O)NC(C)(C)C(=O)N[C@@H](C)C(=O)N[C@@H](CCCNC(=N)N)C(=O)N[C@@H](C)C(=O)N[C@@H](CCC(N)=O)C(=O)N[C@@H](CCC(=O)O)C(=O)N[C@@H](Cc1ccccc1)C(=O)N[C@H](C(=O)NC(C)(C)C(=O)N[C@@H](Cc1c[nH]c2ccccc12)C(=O)N[C@@H](CC(C)C)C(=O)N[C@@H](CCC(=O)O)C(=O)N[C@@H](CC(=O)O)C(=O)N[C@@H](CCC(=O)O)C(=O)N1CCC[C@H]1C(=O)N[C@@H](CO)C(=O)N[C@@H](CO)C(=O)NCC(=O)N[C@@H](C)C(=O)N1CCC[C@H]1C(=O)N1CCC[C@H]1C(=O)N1CCC[C@H]1C(=O)N[C@@H](CO)C(=O)O)C(C)C` [Compound A36] (H-YSHGTFTSDHSKWLD[Aib]ARAQEFV[Aib]WLEDEPSSGAPPPS-OH; N-terminus assumed) are less than 9.00 and 10.20.
Turning to `CC(C)C[C@H](NC(=O)[C@H](Cc1c[nH]c2ccccc12)NC(=O)[C@H](CCCCN)NC(=O)[C@H](CO)NC(=O)[C@H](Cc1ccc(O)cc1)NC(=O)[C@H](CC(=O)O)NC(=O)[C@H](CO)NC(=O)[C@@H](NC(=O)[C@H](Cc1ccccc1)NC(=O)[C@@H](NC(=O)CNC(=O)[C@H](Cc1c[nH]cn1)NC(=O)[C@@H](NC(=O)[C@@H](N)Cc1ccc(O)cc1)[C@@H](C)O)[C@@H](C)O)[C@@H](C)O)C(=O)N[C@@H](CC(=O)O)C(=O)N[C@@H](CO)C(=O)N[C@@H](C)C(=O)N[C@@H](CCCNC(=N)N)C(=O)N[C@@H](C)C(=O)N[C@@H](CCC(N)=O)C(=O)N[C@@H](CCC(=O)O)C(=O)N[C@@H](Cc1ccccc1)C(=O)N[C@H](C(=O)N[C@@H](CCCCN)C(=O)N[C@@H](Cc1c[nH]c2ccccc12)C(=O)N[C@@H](CC(C)C)C(=O)N[C@@H](CCC(=O)O)C(=O)N[C@@H](CC(=O)O)C(=O)N[C@@H](CCC(=O)O)C(=O)N1CCC[C@H]1C(=O)N[C@@H](CO)C(=O)N[C@@H](CO)C(=O)NCC(=O)N[C@@H](C)C(=O)N1CCC[C@H]1C(=O)N1CCC[C@H]1C(=O)N1CCC[C@H]1C(=O)N[C@@H](CO)C(=O)O)C(C)C` [Compound A39] (H-YTHGTFTSDYSKWLDSARAQEFVKWLEDEPSSGAPPPS-OH; N-terminus assumed), the results for the pEC50 on human GLP-1R and on human GCGR were less than 9.00 and 9.40, respectively.
The corresponding values for `CC(C)C[C@H](NC(=O)[C@H](Cc1c[nH]c2ccccc12)NC(=O)[C@H](CCCCN)NC(=O)[C@H](CO)NC(=O)[C@H](Cc1c[nH]cn1)NC(=O)[C@H](CC(=O)O)NC(=O)[C@H](CO)NC(=O)[C@@H](NC(=O)[C@H](Cc1ccccc1)NC(=O)[C@@H](NC(=O)CNC(=O)[C@H](Cc1c[nH]cn1)NC(=O)[C@H](CO)NC(=O)[C@@H](N)Cc1ccc(O)cc1)[C@@H](C)O)[C@@H](C)O)C(=O)N[C@@H](CC(=O)O)C(=O)N[C@@H](CO)C(=O)N[C@@H](C)C(=O)N[C@@H](CCCNC(=N)N)C(=O)N[C@@H](C)C(=O)N[C@@H](CCC(N)=O)C(=O)N[C@@H](CCC(=O)O)C(=O)N[C@@H](Cc1ccccc1)C(=O)N[C@H](C(=O)N[C@@H](CCCCN)C(=O)N[C@@H](Cc1c[nH]c2ccccc12)C(=O)N[C@@H](CC(C)C)C(=O)N[C@@H](CCC(=O)O)C(=O)N[C@@H](CC(=O)O)C(=O)N[C@@H](CCC(=O)O)C(=O)N1CCC[C@H]1C(=O)N[C@@H](CO)C(=O)N[C@@H](CO)C(=O)NCC(=O)N[C@@H](C)C(=O)N1CCC[C@H]1C(=O)N1CCC[C@H]1C(=O)N1CCC[C@H]1C(=O)N[C@@H](CO)C(=O)O)C(C)C` [Compound A40] (H-YSHGTFTSDHSKWLDSARAQEFVKWLEDEPSSGAPPPS-OH; N-terminus assumed) are less than 9.00 and 10.10.
The corresponding values for `CC(C)C[C@H](NC(=O)[C@H](Cc1c[nH]c2ccccc12)NC(=O)[C@H](CCCCN)NC(=O)[C@H](CO)NC(=O)[C@H](Cc1c[nH]cn1)NC(=O)[C@H](CC(=O)O)NC(=O)[C@H](CO)NC(=O)[C@@H](NC(=O)[C@H](Cc1ccccc1)NC(=O)[C@@H](NC(=O)CNC(=O)[C@H](Cc1c[nH]cn1)NC(=O)[C@@H](NC(=O)[C@@H](N)Cc1ccc(O)cc1)[C@@H](C)O)[C@@H](C)O)[C@@H](C)O)C(=O)N[C@@H](CC(=O)O)C(=O)N[C@@H](CCC(=O)O)C(=O)N[C@@H](C)C(=O)N[C@@H](CCCNC(=N)N)C(=O)N[C@@H](C)C(=O)N[C@@H](CCC(N)=O)C(=O)N[C@@H](CCC(=O)O)C(=O)N[C@@H](Cc1ccccc1)C(=O)N[C@H](C(=O)N[C@@H](CCCCN)C(=O)N[C@@H](Cc1c[nH]c2ccccc12)C(=O)N[C@@H](CC(C)C)C(=O)N[C@@H](CCC(=O)O)C(=O)N[C@@H](CC(=O)O)C(=O)N[C@@H](CCC(=O)O)C(=O)N1CCC[C@H]1C(=O)N[C@@H](CO)C(=O)N[C@@H](CO)C(=O)NCC(=O)N[C@@H](C)C(=O)N1CCC[C@H]1C(=O)N1CCC[C@H]1C(=O)N1CCC[C@H]1C(=O)N[C@@H](CO)C(=O)O)C(C)C` [Compound A41] (H-YTHGTFTSDHSKWLDEARAQEFVKWLEDEPSSGAPPPS-OH; N-terminus assumed) are less than 9.00 and 9.20.

The record behind these values is patent publication US20240239861A1, “GLUCAGON-RECEPTOR SELECTIVE POLYPEPTIDES AND METHODS OF USE THEREOF” (i2O Therapeutics, Inc., priority 2016, published 2024).
